From ChEMBL document CHEMBL4507324 (2021)

Legend:
Details in all cases: Compound concentration 100.0 nM
[1] = biological target: Serine/threonine-protein kinase SBK1 (Homo sapiens) (UniProt Q52WX2)
[2] = test system: Tyrosine-protein kinase ABL1 (Homo sapiens), P00519 [M351T]
[3] = biological target: Cyclin-dependent kinase 19 (Homo sapiens) (UniProt Q9BWU1)
[4] = biological target: Cyclin-dependent kinase 8 (Homo sapiens) (UniProt P49336)
[5] = biological target: Tyrosine-protein kinase JAK2 (Homo sapiens) (UniProt O60674)
[6] = biological target: Vascular endothelial growth factor receptor 3 (Homo sapiens) (UniProt P35916)
[7] = biological target: Calcium/calmodulin-dependent protein kinase type II subunit gamma (Homo sapiens) (UniProt Q13555)
[8] = biological target: Citron Rho-interacting kinase (Homo sapiens) (UniProt O14578)
[9] = biological target: Cyclin-dependent kinase 4 (Homo sapiens) (UniProt P11802)
[10] = biological target: Serine/threonine-protein kinase 26 (Homo sapiens) (UniProt Q9P289)
[11] = biological target: Serine/threonine-protein kinase WNK1 (Homo sapiens) (UniProt Q9H4A3)
[12] = biological target: Protein-tyrosine kinase 2-beta (Homo sapiens) (UniProt Q14289)
[13] = biological target: Non-receptor tyrosine-protein kinase TYK2 (Homo sapiens) (UniProt P29597)
[14] = biological target: Rho-associated protein kinase 2 (Homo sapiens) (UniProt O75116)
[15] = biological target: Serine/threonine-protein kinase ULK2 (Homo sapiens) (UniProt Q8IYT8)
[16] = test system: Epidermal growth factor receptor (Homo sapiens), P00533 [L858R]
[17] = biological target: Dual specificity protein kinase CLK2 (Homo sapiens) (UniProt P49760)
[18] = biological target: Serine/threonine-protein kinase 17A (Homo sapiens) (UniProt Q9UEE5)
[19] = biological target: Serine/threonine-protein kinase pim-2 (Homo sapiens) (UniProt Q9P1W9)
[20] = biological target: Serine/threonine-protein kinase pim-1 (Homo sapiens) (UniProt P11309)
[21] = biological target: Calcium/calmodulin-dependent protein kinase kinase 2 (Homo sapiens) (UniProt Q96RR4)
[22] = biological target: Casein kinase II subunit alpha' (Homo sapiens) (UniProt P19784)
[23] = biological target: Serine/threonine-protein kinase tousled-like 1 (Homo sapiens) (UniProt Q9UKI8)
[24] = test system: Phosphatidylinositol 4,5-bisphosphate 3-kinase catalytic subunit alpha isoform (Homo sapiens), P42336 [C420R]
[25] = biological target: MAP kinase-interacting serine/threonine-protein kinase 2 (Homo sapiens) (UniProt Q9HBH9)
[26] = biological target: Myosin-IIIb (Homo sapiens) (UniProt Q8WXR4)
[27] = biological target: Mitogen-activated protein kinase kinase kinase 19 (Homo sapiens) (UniProt Q56UN5)
[28] = biological target: Tyrosine-protein kinase ABL1 (Homo sapiens) (UniProt P00519)
[29] = biological target: Peripheral plasma membrane protein CASK (Homo sapiens) (UniProt O14936)
[30] = biological target: NT-3 growth factor receptor (Homo sapiens) (UniProt Q16288)
[31] = test system: Leucine-rich repeat serine/threonine-protein kinase 2 (Homo sapiens), Q5S007 [G2019S]
[32] = biological target: Tyrosine-protein kinase BTK (Homo sapiens) (UniProt Q06187)
[33] = test system: Epidermal growth factor receptor (Homo sapiens), P00533 [UNDEFINED MUTATION]
[34] = biological target: Beta-adrenergic receptor kinase 1 (Homo sapiens) (UniProt P25098)
[35] = test system: Mast/stem cell growth factor receptor Kit (Homo sapiens), P10721 [L576P]
[36] = biological target: Cyclin-dependent kinase 5 (Homo sapiens) (UniProt Q00535)
[37] = test system: Epidermal growth factor receptor (Homo sapiens), P00533 [L861Q]
[38] = biological target: Bone morphogenetic protein receptor type-1B (Homo sapiens) (UniProt O00238)
[39] = biological target: Activin receptor type-1-like (Homo sapiens) (UniProt P37023)
[40] = biological target: Serine/threonine-protein kinase Nek2 (Homo sapiens) (UniProt P51955)
[41] = biological target: Activin receptor type-2A (Homo sapiens) (UniProt P27037)
[42] = biological target: Dual specificity mitogen-activated protein kinase kinase 6 (Homo sapiens) (UniProt P52564)
[43] = biological target: Cyclin-dependent kinase 11B (Homo sapiens) (UniProt P21127)
[44] = biological target: Serine/threonine-protein kinase Nek11 (Homo sapiens) (UniProt Q8NG66)
[45] = biological target: Serine/threonine-protein kinase TNNI3K (Homo sapiens) (UniProt Q59H18)

Chain of Rho-associated protein kinase 2 (Homo sapiens) (O75116 whole entry, looked up): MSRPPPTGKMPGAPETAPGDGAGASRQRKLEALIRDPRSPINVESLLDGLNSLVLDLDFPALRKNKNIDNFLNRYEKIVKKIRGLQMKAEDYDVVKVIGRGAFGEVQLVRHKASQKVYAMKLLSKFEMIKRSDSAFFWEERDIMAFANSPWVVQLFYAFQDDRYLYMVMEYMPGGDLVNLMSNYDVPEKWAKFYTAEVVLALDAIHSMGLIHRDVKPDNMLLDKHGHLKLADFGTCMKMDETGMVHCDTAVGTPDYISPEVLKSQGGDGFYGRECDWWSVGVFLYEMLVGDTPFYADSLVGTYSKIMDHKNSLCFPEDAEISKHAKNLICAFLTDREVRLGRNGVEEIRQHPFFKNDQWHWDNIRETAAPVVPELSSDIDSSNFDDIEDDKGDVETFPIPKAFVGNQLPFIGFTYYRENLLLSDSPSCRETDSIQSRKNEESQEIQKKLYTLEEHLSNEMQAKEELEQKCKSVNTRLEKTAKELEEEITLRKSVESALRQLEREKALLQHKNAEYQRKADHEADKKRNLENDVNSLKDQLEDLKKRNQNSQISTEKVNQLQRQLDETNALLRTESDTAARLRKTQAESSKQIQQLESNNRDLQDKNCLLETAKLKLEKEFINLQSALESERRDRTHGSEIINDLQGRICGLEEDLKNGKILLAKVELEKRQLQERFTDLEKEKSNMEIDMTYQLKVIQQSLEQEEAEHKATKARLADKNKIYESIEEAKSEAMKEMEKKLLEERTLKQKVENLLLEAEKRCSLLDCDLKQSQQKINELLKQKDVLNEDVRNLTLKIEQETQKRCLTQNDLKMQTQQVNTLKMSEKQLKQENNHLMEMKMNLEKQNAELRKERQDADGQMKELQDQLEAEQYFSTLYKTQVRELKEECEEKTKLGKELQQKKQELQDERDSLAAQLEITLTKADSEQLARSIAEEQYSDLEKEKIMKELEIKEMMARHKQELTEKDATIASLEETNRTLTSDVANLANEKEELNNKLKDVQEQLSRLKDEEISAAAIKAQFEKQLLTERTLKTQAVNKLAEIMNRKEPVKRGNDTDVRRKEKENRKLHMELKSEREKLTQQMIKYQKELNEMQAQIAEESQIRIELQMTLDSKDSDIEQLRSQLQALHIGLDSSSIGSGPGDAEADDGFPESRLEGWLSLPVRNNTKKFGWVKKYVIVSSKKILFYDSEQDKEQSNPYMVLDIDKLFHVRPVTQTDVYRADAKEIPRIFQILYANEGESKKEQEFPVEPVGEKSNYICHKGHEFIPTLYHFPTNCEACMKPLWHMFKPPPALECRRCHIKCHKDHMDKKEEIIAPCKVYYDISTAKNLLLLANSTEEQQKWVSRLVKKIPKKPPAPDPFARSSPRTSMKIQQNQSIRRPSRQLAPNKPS
Chain of Serine/threonine-protein kinase SBK1 (Homo sapiens) (Q52WX2 whole entry): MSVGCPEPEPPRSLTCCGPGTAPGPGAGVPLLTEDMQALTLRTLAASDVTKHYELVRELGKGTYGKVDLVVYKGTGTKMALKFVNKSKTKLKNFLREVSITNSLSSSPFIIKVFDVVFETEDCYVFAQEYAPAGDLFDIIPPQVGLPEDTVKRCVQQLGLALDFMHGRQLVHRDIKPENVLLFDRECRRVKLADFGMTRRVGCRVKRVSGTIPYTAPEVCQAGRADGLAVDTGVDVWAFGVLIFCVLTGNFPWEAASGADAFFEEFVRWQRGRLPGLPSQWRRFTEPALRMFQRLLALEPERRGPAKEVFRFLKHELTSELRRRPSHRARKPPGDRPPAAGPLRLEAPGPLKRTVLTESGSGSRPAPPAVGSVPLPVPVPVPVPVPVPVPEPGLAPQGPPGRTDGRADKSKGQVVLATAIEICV
Chain of Cyclin-dependent kinase 11B (Homo sapiens) (P21127 whole entry): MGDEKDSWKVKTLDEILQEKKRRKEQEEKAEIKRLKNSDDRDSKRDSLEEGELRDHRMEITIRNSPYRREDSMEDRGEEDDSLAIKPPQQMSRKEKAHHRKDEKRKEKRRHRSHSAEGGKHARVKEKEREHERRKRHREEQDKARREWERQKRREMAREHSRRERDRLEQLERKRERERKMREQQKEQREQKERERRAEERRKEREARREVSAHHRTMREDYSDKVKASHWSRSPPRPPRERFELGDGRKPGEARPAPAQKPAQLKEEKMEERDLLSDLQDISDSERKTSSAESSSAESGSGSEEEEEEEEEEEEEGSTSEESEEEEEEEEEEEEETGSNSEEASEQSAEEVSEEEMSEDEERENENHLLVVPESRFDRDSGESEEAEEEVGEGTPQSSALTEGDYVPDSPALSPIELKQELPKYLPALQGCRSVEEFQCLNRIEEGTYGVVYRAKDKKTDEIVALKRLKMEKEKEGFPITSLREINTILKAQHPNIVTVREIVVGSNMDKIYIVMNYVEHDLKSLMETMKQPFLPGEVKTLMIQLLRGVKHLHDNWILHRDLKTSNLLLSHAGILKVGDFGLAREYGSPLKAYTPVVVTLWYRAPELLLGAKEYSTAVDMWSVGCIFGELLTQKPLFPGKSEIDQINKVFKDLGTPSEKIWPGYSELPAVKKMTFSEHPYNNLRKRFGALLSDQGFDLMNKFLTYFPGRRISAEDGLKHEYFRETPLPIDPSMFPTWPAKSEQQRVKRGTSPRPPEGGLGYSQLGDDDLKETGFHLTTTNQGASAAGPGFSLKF
Chain of Activin receptor type-2A (Homo sapiens) (P27037 whole entry): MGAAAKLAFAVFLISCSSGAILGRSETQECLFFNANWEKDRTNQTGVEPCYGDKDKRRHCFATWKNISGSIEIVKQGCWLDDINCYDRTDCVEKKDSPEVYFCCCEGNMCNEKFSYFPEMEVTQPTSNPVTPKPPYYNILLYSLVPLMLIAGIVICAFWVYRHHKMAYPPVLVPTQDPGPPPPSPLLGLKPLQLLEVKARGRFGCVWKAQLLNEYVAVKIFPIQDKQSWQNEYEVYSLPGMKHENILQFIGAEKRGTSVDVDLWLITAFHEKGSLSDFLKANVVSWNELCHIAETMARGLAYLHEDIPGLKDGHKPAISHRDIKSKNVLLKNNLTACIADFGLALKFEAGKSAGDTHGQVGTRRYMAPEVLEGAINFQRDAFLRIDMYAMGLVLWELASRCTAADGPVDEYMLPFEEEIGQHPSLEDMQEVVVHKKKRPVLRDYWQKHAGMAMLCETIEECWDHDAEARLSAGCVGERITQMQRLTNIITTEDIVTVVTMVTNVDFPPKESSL
Chain of Activin receptor type-1-like (Homo sapiens) (P37023 whole entry): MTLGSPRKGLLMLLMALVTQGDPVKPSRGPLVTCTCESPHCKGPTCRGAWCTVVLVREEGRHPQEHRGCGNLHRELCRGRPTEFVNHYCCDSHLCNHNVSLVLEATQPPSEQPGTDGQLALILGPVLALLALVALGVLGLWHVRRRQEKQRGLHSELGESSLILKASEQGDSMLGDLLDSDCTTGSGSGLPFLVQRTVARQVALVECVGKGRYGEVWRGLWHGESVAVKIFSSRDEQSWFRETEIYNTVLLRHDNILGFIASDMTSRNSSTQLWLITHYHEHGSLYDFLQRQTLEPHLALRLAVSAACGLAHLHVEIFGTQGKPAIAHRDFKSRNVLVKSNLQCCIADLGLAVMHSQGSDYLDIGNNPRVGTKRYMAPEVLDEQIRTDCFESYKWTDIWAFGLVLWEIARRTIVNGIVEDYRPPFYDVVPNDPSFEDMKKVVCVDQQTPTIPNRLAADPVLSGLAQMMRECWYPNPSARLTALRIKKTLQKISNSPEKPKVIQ
Chain of Serine/threonine-protein kinase ULK2 (Homo sapiens) (Q8IYT8 whole entry): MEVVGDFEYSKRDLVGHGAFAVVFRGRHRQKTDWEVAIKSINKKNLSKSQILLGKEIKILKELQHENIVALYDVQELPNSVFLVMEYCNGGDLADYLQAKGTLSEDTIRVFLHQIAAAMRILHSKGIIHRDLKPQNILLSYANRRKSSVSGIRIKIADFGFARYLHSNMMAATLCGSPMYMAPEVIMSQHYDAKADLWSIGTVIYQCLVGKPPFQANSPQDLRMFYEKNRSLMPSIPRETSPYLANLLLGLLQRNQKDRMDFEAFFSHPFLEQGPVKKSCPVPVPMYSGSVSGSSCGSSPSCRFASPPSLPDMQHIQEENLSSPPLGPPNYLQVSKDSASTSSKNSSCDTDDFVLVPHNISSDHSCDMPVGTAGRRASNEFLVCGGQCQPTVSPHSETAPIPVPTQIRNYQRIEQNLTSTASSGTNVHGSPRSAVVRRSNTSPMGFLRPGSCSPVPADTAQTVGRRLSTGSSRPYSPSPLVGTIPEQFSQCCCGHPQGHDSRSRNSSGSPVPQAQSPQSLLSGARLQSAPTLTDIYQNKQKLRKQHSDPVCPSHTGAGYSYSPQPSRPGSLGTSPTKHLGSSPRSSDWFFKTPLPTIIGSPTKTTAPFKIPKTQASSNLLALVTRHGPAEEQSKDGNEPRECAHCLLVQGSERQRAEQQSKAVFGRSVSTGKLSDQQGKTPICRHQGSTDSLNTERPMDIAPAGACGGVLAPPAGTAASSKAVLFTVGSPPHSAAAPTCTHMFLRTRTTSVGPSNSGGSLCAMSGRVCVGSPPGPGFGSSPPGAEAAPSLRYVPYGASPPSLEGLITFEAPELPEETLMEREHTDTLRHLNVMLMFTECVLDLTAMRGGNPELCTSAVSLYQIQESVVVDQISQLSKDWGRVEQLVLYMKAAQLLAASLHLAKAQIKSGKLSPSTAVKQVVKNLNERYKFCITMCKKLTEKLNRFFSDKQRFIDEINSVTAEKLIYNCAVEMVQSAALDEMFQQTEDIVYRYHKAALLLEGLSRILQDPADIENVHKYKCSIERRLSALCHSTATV
Chain of Serine/threonine-protein kinase pim-2 (Homo sapiens) (Q9P1W9 whole entry, looked up): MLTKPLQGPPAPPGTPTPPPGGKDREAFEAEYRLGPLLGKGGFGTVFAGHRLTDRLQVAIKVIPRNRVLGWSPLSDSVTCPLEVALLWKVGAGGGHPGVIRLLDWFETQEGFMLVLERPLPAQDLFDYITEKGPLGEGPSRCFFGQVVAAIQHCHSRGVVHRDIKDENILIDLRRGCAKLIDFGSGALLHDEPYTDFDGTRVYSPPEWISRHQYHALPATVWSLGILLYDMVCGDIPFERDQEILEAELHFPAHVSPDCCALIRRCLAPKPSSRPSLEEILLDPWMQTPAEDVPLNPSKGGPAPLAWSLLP

Compound `CS(=O)(=O)N1CCCC(NC(=O)[C@H](CCC2CCCCC2)NC(=O)c2ccc(CNc3ncnc4c3nnn4-c3ccccc3)cc2)C1` (stereo not given in full) [SR-301] has a residual activity [1] of 82%, a residual activity [2] of 100% and a residual activity [3] of 90%. It also gave a residual activity [4] of 100%, a residual activity [5] of 100% and a residual activity [6] of 81%. It also gave a residual activity [7] of 94%, a residual activity [8] of 98% and a residual activity [9] of 91%. The residual activity [10] was 92%, the residual activity [11] was 100% and the residual activity [12] was 94%. For the same compound, the residual activity [13] was 99%, the residual activity [14] was 100% and the residual activity [15] was 100%. For the same compound, the residual activity [16] was 100%, the residual activity [17] was 100% and the residual activity [18] was 100%. For the same compound, the residual activity [19] was 88%, the residual activity [20] was 95% and the residual activity [21] was 78%. It also gave a residual activity [22] of 85%, a residual activity [23] of 94% and a residual activity [24] of 89%. The residual activity [25] was 100%, the residual activity [26] was 100% and the residual activity [27] was 92%. For the same compound, the residual activity [28] was 82%, the residual activity [29] was 100% and the residual activity [30] was 86%. The residual activity [31] was 100%, the residual activity [32] was 100% and the residual activity [33] was 100%. The residual activity [34] was 72%, the residual activity [35] was 78% and the residual activity [36] was 94%. The residual activity [37] was 100%, the residual activity [38] was 91% and the residual activity [39] was 97%. The residual activity [40] was 100%, the residual activity [41] was 68% and the residual activity [42] was 67%. The residual activity [43] was 100%, the residual activity [44] was 100% and the residual activity [45] was 63%.

Compound `CS(=O)(=O)N1CCCC(NC(=O)[C@H](CCC2CCCCC2)NC(=O)c2ccc(CNC(=O)c3cnc4ccccn34)cc2)C1` (stereo not given in full) [SR-302] has a residual activity [1] of 77%, a residual activity [2] of 100% and a residual activity [3] of 100%. It also gave a residual activity [4] of 42%, a residual activity [5] of 100% and a residual activity [6] of 95%. For the same compound, the residual activity [7] was 86%, the residual activity [8] was 100% and the residual activity [9] was 99%. It also gave a residual activity [10] of 100%, a residual activity [11] of 99% and a residual activity [12] of 100%. The residual activity [13] was 84%, the residual activity [14] was 100% and the residual activity [15] was 100%. The residual activity [16] was 83%, the residual activity [17] was 98% and the residual activity [18] was 100%. It also gave a residual activity [19] of 100%, a residual activity [20] of 89% and a residual activity [21] of 88%. The residual activity [22] was 100%, the residual activity [23] was 72% and the residual activity [24] was 93%. It also gave a residual activity [25] of 84%, a residual activity [26] of 89% and a residual activity [27] of 71%. It also gave a residual activity [28] of 61%, a residual activity [29] of 100% and a residual activity [30] of 88%. It also gave a residual activity [31] of 100%, a residual activity [32] of 100% and a residual activity [33] of 100%. The residual activity [34] was 88%, the residual activity [35] was 55% and the residual activity [36] was 100%. It also gave a residual activity [37] of 100%, a residual activity [38] of 100% and a residual activity [39] of 96%. The residual activity [40] was 86%, the residual activity [41] was 100% and the residual activity [42] was 72%. For the same compound, the residual activity [43] was 94%, the residual activity [44] was 94% and the residual activity [45] was 89%.
